{"source": "patent US20070037882A1", "about": "“Remedy for cerebral neurodegenerative diseases using ppar agonist” (Astellas Pharma Inc., priority 2003, published 2007)", "key": {"SH-SY5Y cells [1]": {"system": "SH-SY5Y cells", "assay": "Thapsigargin-induced cellular death model, dead cells by LDH assay", "type": "cell-based, human", "settings": "thapsigargin + (100 nM), 24 h, concentration not given", "protocol": "SH-SY5Y cells were plated on a 96-well plate (70,000 cell/well in 100 μl DMEM low glucose 10% fetal bovine serum) for overnight culturing, from which the culture medium was removed with an aspirator. Then, DMEM without serum was added at 50 μl/well. […] 2 hours later, DMEM without serum containing 600 nM thapsigargin was added at 20 μl/well. (Thapsigargin to a final 100 nM concentration) (For a control, DMEM without serum alone was added.) 24 hours later, the absorbance at 490 nm was assayed with a cytotoxicity detection kit (Roche) to assay the LDH activity. […] An apparent correlation between the result of the viable cell count as determined by MTT assay in Example 1 and the LDH activity is shown. The above results clearly indicate that the PPARδ agonists are effective on the suppression of the thapsigargin-induced cellular death."}, "SH-SY5Y cells [2]": {"system": "SH-SY5Y cells", "assay": "MPP+-induced cellular death model, apoptosis by caspase-3/7 assay", "type": "cell-based, human", "settings": "for suppression of caspase-3/7 activity (in words): SH-SY5Y, MPP+; for Caspase 3/7 activity: MPP+ + (3 mM), 3 h", "protocol": "SH-SY5Y cells were spread on a 96-well plate (70,000 cell/well in 100 μl DMEM low glucose 10% fetal bovine serum) for overnight culturing, from which the culture medium was removed with an aspirator. Then, DMEM without serum was added at 50 μl/well. […] 2 hours later, DMEM without serum containing 18 mM MPP^+ was added at 20 μl/well. (MPP^+ to a final 3 mM concentration.) (For control, DMEM without serum alone was added.)\n3 hours later, the caspase-3/7 activity was assayed with Apo-One homogenous Caspase-3/7 assay kit (Promega)."}, "[3]": {"system": "rat cerebral infarction model", "assay": "Rat cerebral infarction model (middle cerebral artery-occluded reperfusion, Koizumi method)", "type": "in vivo", "settings": "for Lesions with cerebral infarction (area in % of damaged site in the 6 sections), Cortex / Lesions with cerebral infarction (area in % of damaged site in the 6 sections), Subcortex / Lesions with cerebral infarction (area in % of damaged site in the 6 sections), Total: 24 h after reperfusion; for action to reduce cerebral infarction (in words): rat cerebral infarction model"}, "[4]": {"system": "GAL4-human PPARα fusion protein", "assay": "GAL4 reporter gene assay in CV-1 cells, human PPARα", "type": "cell-based", "settings": "first 'Human PPAR-•' line (taken as α), pG5luc reporter"}, "[5]": {"system": "GAL4-human PPARγ fusion protein", "assay": "GAL4 reporter gene assay in CV-1 cells, human PPARγ", "type": "cell-based", "settings": "second 'Human PPAR-•' line (taken as γ), pG5luc reporter"}, "[6]": {"system": "GAL4-human PPARδ fusion protein", "assay": "GAL4 reporter gene assay in CV-1 cells, human PPARδ", "type": "cell-based", "settings": "third 'Human PPAR-•' line (taken as δ), pG5luc reporter"}, "[7]": {"system": "GAL4-murine PPARα fusion protein", "assay": "GAL4 reporter gene assay in CV-1 cells, murine PPARα", "type": "cell-based", "settings": "first 'Murine PPAR-•' line (taken as α), pG5luc reporter"}, "[8]": {"system": "GAL4-murine PPARγ fusion protein", "assay": "GAL4 reporter gene assay in CV-1 cells, murine PPARγ", "type": "cell-based", "settings": "second 'Murine PPAR-•' line (taken as γ), pG5luc reporter"}, "[9]": {"system": "GAL4-murine PPARδ fusion protein", "settings": "third 'Murine PPAR-•' line (taken as δ); CV-1 cells, pG5luc reporter"}, "PPARδ": {"molecular_target": "T1, PPARδ (Homo sapiens, UniProt Q03181)", "T1 sequence (Q03181 1-441)": "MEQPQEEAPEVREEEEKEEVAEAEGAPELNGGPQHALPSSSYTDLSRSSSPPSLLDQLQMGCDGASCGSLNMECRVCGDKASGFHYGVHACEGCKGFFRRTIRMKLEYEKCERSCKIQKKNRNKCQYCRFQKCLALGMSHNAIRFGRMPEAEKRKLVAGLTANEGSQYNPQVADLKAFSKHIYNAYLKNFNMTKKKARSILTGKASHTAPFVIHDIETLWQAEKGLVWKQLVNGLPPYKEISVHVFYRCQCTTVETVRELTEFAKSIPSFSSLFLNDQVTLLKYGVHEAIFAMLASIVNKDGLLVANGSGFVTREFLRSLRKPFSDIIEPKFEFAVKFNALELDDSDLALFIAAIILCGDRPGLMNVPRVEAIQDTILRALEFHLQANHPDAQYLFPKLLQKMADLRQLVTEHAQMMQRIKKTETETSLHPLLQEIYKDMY", "settings": "FEBS Letters 473 (2000) 333-336; read-out: affinity to PPARδ (Ki); cited from earlier work"}, "PPARγ": {"molecular_target": "T2, PPARγ (Homo sapiens, UniProt P37231)", "T2 sequence (P37231 1-505)": "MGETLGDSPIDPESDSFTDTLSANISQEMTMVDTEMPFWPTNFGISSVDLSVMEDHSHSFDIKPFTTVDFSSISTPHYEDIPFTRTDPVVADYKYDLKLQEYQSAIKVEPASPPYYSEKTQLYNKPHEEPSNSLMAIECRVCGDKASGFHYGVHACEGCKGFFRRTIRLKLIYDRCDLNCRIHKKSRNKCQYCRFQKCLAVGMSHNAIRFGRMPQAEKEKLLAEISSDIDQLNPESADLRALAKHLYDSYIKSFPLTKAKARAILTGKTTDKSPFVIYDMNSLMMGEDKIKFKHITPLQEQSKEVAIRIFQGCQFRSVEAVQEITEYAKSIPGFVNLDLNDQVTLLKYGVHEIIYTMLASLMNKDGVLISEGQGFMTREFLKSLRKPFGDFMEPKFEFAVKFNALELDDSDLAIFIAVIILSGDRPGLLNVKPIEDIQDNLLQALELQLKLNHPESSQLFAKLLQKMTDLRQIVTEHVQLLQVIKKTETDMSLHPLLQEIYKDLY", "settings": "FEBS Letters 473 (2000) 333-336; read-out: affinity to PPARγ (Ki); cited from earlier work"}, "[10]": {"settings": "2nd '+' line (presumably 0.1 μM)"}, "[11]": {"settings": "4th '+' line (presumably 10 μM)"}, "[12]": {"settings": "5th '+' line (presumably 100 μM)"}}, "note": "Entries after “also recorded” stand apart in the source; their conditions may differ.", "data": [{"smiles": "Cc1cc(SCc2sc(-c3ccc(C(F)(F)F)cc3)nc2C)ccc1OCC(=O)O", "note": "[GW501516]", "values": [{"measurement": "LDH release A490", "setting": "SH-SY5Y cells [1]; [10]", "value": "0.6225 ± 0.0229"}, {"measurement": "LDH release A490", "setting": "SH-SY5Y cells [1]; 3rd '+' line (presumably 1 μM)", "value": "0.5750 ± 0.0212"}, {"measurement": "LDH release A490", "setting": "SH-SY5Y cells [1]; [11]", "value": "0.3325 ± 0.0259"}, {"measurement": "LDH release A490", "setting": "SH-SY5Y cells [1]; [12]", "value": "0.6675 ± 0.0328"}, {"measurement": "suppression of caspase-3/7 activity (in words)", "setting": "SH-SY5Y cells [2]", "value": "suppress the activity of caspase-3/7 in a concentration-dependent manner"}, {"measurement": "Caspase 3/7 activity", "setting": "SH-SY5Y cells [2]; compound 0.1 μM", "value": "847552 ± 36575", "unit": "RFLU"}, {"measurement": "Caspase 3/7 activity", "setting": "SH-SY5Y cells [2]; compound 1 μM", "value": "621059 ± 26590", "unit": "RFLU"}, {"measurement": "Caspase 3/7 activity", "setting": "SH-SY5Y cells [2]; compound 10 μM", "value": "798646 ± 54365", "unit": "RFLU"}, {"measurement": "Caspase 3/7 activity", "setting": "SH-SY5Y cells [2]; compound 100 μM", "value": "398604 ± 55698", "unit": "RFLU"}, {"measurement": "Lesions with cerebral infarction (area in % of damaged site in the 6 sections), Cortex", "setting": "[3]; 24 μg/head/day i.c.v.", "value": "9.39 ± 1.56", "unit": "%"}, {"measurement": "Lesions with cerebral infarction (area in % of damaged site in the 6 sections), Subcortex", "setting": "[3]; 24 μg/head/day i.c.v.", "value": "9.35 ± 0.65", "unit": "%"}, {"measurement": "Lesions with cerebral infarction (area in % of damaged site in the 6 sections), Total", "setting": "[3]; 24 μg/head/day i.c.v.", "value": "18.74 ± 2.00", "unit": "%"}, {"measurement": "Lesions with cerebral infarction (area in % of damaged site in the 6 sections), Cortex", "setting": "[3]; 240 μg/head/day i.c.v.", "value": "7.26 ± 1.67", "unit": "%"}, {"measurement": "Lesions with cerebral infarction (area in % of damaged site in the 6 sections), Subcortex", "setting": "[3]; 240 μg/head/day i.c.v.", "value": "7.88 ± 0.79", "unit": "%"}, {"measurement": "Lesions with cerebral infarction (area in % of damaged site in the 6 sections), Total", "setting": "[3]; 240 μg/head/day i.c.v.", "value": "15.14 ± 2.20", "unit": "%"}, {"measurement": "action to reduce cerebral infarction (in words)", "setting": "[3]", "value": "potent actions to reduce cerebral infarction; also recorded: far greater action of reducing cerebral damages"}]}, {"smiles": "CCCc1c(OCCCOc2ccc(OCC(=O)O)cc2)ccc(C(C)=O)c1O", "note": "[L-165041, 4-[3-[2-propyl-3-hydroxy-4-acetyl]phenoxy]propyloxyphenoxy acetic acid]", "values": [{"measurement": "LDH release A490", "setting": "SH-SY5Y cells [1]; [10]", "value": "0.6758 ± 0.0183"}, {"measurement": "LDH release A490", "setting": "SH-SY5Y cells [1]; 3rd '+' line (presumably 1 μM)", "value": "0.6295 ± 0.0139"}, {"measurement": "LDH release A490", "setting": "SH-SY5Y cells [1]; [11]", "value": "0.6029 ± 0.0135"}, {"measurement": "LDH release A490", "setting": "SH-SY5Y cells [1]; [12]", "value": "0.2987 ± 0.0128"}, {"measurement": "suppression of caspase-3/7 activity (in words)", "setting": "SH-SY5Y cells [2]", "value": "suppress the activity of caspase-3/7 in a concentration-dependent manner"}, {"measurement": "Caspase 3/7 activity", "setting": "SH-SY5Y cells [2]; compound 0.1 μM", "value": "1430206 ± 30804", "unit": "RFLU"}, {"measurement": "Caspase 3/7 activity", "setting": "SH-SY5Y cells [2]; compound 1 μM", "value": "1168920 ± 30554", "unit": "RFLU"}, {"measurement": "Caspase 3/7 activity", "setting": "SH-SY5Y cells [2]; compound 10 μM", "value": "646736 ± 26366", "unit": "RFLU"}, {"measurement": "Caspase 3/7 activity", "setting": "SH-SY5Y cells [2]; compound 100 μM", "value": "572152 ± 33695", "unit": "RFLU"}, {"measurement": "Concentration for action exertion", "setting": "[4]", "value": 10, "unit": "M"}, {"measurement": "Concentration for action exertion", "setting": "[5]", "value": 10, "unit": "M"}, {"measurement": "Concentration for action exertion", "setting": "[6]", "value": 0.1, "unit": "M"}, {"measurement": "Concentration for action exertion", "setting": "[7]", "value": ">100", "unit": "M"}, {"measurement": "Concentration for action exertion", "setting": "[8]", "value": 10, "unit": "M"}, {"measurement": "Lesions with cerebral infarction (area in % of damaged site in the 6 sections), Cortex", "setting": "[3]; 24 μg/head/day i.c.v.", "value": "12.70 ± 0.63", "unit": "%"}, {"measurement": "Lesions with cerebral infarction (area in % of damaged site in the 6 sections), Subcortex", "setting": "[3]; 24 μg/head/day i.c.v.", "value": "9.98 ± 0.30", "unit": "%"}, {"measurement": "Lesions with cerebral infarction (area in % of damaged site in the 6 sections), Total", "setting": "[3]; 24 μg/head/day i.c.v.", "value": "22.68 ± 0.83", "unit": "%"}, {"measurement": "Lesions with cerebral infarction (area in % of damaged site in the 6 sections), Cortex", "setting": "[3]; 240 μg/head/day i.c.v.", "value": "10.22 ± 1.29", "unit": "%"}, {"measurement": "Lesions with cerebral infarction (area in % of damaged site in the 6 sections), Subcortex", "setting": "[3]; 240 μg/head/day i.c.v.", "value": "9.19 ± 0.85", "unit": "%"}, {"measurement": "Lesions with cerebral infarction (area in % of damaged site in the 6 sections), Total", "setting": "[3]; 240 μg/head/day i.c.v.", "value": "19.40 ± 1.98", "unit": "%"}, {"measurement": "Reduction ratio of cerebral cortex damage", "setting": "[3]; i.c.v. 24 •g/head/day", "value": 9, "unit": "%"}, {"measurement": "Reduction ratio of cerebral cortex damage", "setting": "[3]; i.c.v. 240 •g/head/day", "value": 27, "unit": "%"}, {"measurement": "action to reduce cerebral infarction (in words)", "setting": "[3]", "value": "potent actions to reduce cerebral infarction"}, {"measurement": "Concentration for action exertion", "setting": "[9]", "value": 0.1, "unit": "M"}, {"measurement": "Ki", "setting": "PPARδ", "value": 0.006, "unit": "µM"}, {"measurement": "Ki", "setting": "PPARγ", "value": 0.73, "unit": "µM"}]}]}
